Assay results as given in patent US10011568B2, “Cyclohexyl pyridine derivative” (priority 2014, dated 2018).

Tested on: cisplatin-induced retching and vomiting
Assay: Effect on cisplatin-induced acute and delayed emetic response
Assay type: in vivo
Details: ferret, 0.01 or 0.1 mg/kg iv
Method: The vertical axes show the number of retching and vomiting (Retches+Vomits) (the mean+standard error of 3 examples of control group, the mean+standard error of 3 examples of the group intravenously administered with 0.01 mg/kg, and the mean+standard error of 3 examples of the group intravenously administered with 0.1 mg/kg).
Effect on Cisplatin-Induced Acute and Delayed Emetic Response
The test compound solution was prepared by dissolving the test compound in a vehicle (a mixture of 50% N,N-dimetlylacetamide (Wako Pure Chemical Industries). 30% propylene glycol (Wako Pure Chemical Industries), 4% 2-hydroxypropy-β-cyclodextrin (Wako Pure Chemical Industries) and 16% distilled water). The vehicle only was administered to the control group.
Under anesthesia with isoflurane, 0.01 mg/kg or 0.1 mg/kg of the test compound was intravenously administered to a male ferret (Marshall BioResources Japan) from the jugular vein. Cisplatin in saline, which was heated to 40-50° C., was intraperitoneally administered at 5 mg/kg one hour after the drug administration.

Cc1cc(F)ccc1-c1cc([C@H]2CC[C@H](CC(=O)O)CC2)ncc1N(C)C(=O)C(C)(C)c1cc(C(F)(F)F)cc(C(F)(F)F)c1 [Example 13, trans-{4-[5-{[2-(3,5-Bistrifluoromethylphenyl)-2-methylpropionyl]methylamino}-4-(4-fluoro-2-methylphenyl)pyridin-2-yl]cyclohexyl}acetic acid]
number of retching and vomiting, delayed phase (24 hours to 72 hours after cisplatin 5 mg/kg ip): the inhibition of the number of retching and vomiting was observed
number of retching and vomiting, acute phase (up to 24 hours after cisplatin 5 mg/kg ip): the inhibition of the number of retching and vomiting was observed
